Source: patent US20230204565A1, “Methods for Culturing Cancer Cells and for Inhibiting Invasion of Cancer” (The Regents of the University of California, priority 2020, published 2023)
Entries after “also recorded” stand apart in the source; their conditions may differ.

Experiments:
oRG cells = experiment: Time-lapse imaging of mitotic somal translocation (MST) after shRNA knockdown, primary cortical slice culture; assay type: cell-based, human; conditions: for length of MST (somal translocation length): oRG cells during normal human development, primary slice culture, vs scrambled control hairpin
From the text: As described by Hansen et al. (2010), human fetal brain tissue was collected and transported in artificial CSF (ACSF; 125 mm NaCl, 2.5 mm KCI, 1 mm MgCl2, 2 mm CaCl2, 1.25 mm NaH2PO4, 25 mm NaHCO3, 25 mm d-(+)-glucose, bubbled with 95%O2/5%CO2). Brain tissue was embedded in 3% low melting point agarose in ACSF and 250-300 µm coronal vibratome sections were generated. Sections were transferred on Millicell-CM slice culture inserts (Millipore) and cultured in cortical slice culture medium (66% BME, 25% Hanks, 5% FBS, 1% N-2, 1% penicillin, streptomycin and glutamine, all Invitrogen, and 0.66% d-(+)-glucose, Sigma-Aldrich). High titer gfp labeled lentivirus was applied directly to slices that were then cultured at 37° C., 5% CO2, 8% O2 for ~ 96 h. For time-lapse imaging, cultures were then transferred to an inverted Leica TCS SP5 with an on-stage incubator streaming 5% CO2, 5% O2, balance N2 into the chamber. Slices were imaged for GFP using a 10x objective at 15-30 min intervals for up to 3 d with repositioning of the z-stacks every ~12 h. Movies were analyzed with Imaris.
PTPRZ1 and its ligand, PTN, are identified in this disclosure as necessary for tumor invasion and viability. It was tested whether the expression of PTPRZ1 is required for the role of oRG-like cells in glioblastoma invasion using genetic and pharmacologic approaches. Previous work has linked PTPRZ1 and PTN with the Rho/Rho-kinase (ROCK) signaling pathway in glioblastoma. […] Given that the functional significance of key oRG markers such as PTPRZ1 remains unknown, and the role of MST has not been previously described in glioblastoma, the role of PTPRZ1/PTN signaling in oRG cell behavior was studied. shRNA mediated knock down of both PTPRZ1 and PTN in oRG cells was used during normal human development and the impact on MST was monitored. […] To relate these findings to invasive behavior, in vitro invasion assays were performed on PDX tumor samples treated with either control, scrambled shRNAs, PTPRZ1 shRNAs, or Rock inhibitor to inhibit MST.

[1] = tested on: patient derived xenograft (PDX) line DBTRGFL; experiment: In vitro invasion assay (gap filling); assay type: cell-based, human; conditions: imaged every 24 hours, Day 0 to Day 3, vs scrambled shRNA control
Experimental: FIG. 6B. PTPRZ1 Promotes MST driven invasiveness of glioblastoma. Invasion assays of patient derived xenograft (PDX) line DBTRGFL were performed with control (scrambled shRNA), PTPRZ1 knockdown (shRNA) and Rock Inhibition. Invasions were imaged every 24 hours, and Day 0 and Day 3 are shown. Quantification was performed by calculating how much of the gap was filled. Statistics were performed for both PTPRZ1 knockdown and Rock inhibition, and statistics are showing for Rock inhibition on top and PTPRZ1 knockdown below (* = p <0.05, ** p < 0.01, *** p < 0.001, Student’s two-sided t-test).
PTPRZ1 and its ligand, PTN, are identified in this disclosure as necessary for tumor invasion and viability. It was tested whether the expression of PTPRZ1 is required for the role of oRG-like cells in glioblastoma invasion using genetic and pharmacologic approaches. Previous work has linked PTPRZ1 and PTN with the Rho/Rho-kinase (ROCK) signaling pathway in glioblastoma. […] Given that the functional significance of key oRG markers such as PTPRZ1 remains unknown, and the role of MST has not been previously described in glioblastoma, the role of PTPRZ1/PTN signaling in oRG cell behavior was studied. shRNA mediated knock down of both PTPRZ1 and PTN in oRG cells was used during normal human development and the impact on MST was monitored. […]

[2] = Proliferation, cell titer blue assay; assay type: cell-based; conditions: any time point, n=5
From the text: FIG. 12D. Transplants of primary glioblastoma tumors into cortical organoids. Proliferation as indicated by cell titer blue assay is shown for PTPRZ1 shScr (Ctrl) or shPTPRZ1 (KD). […] On the right, an invasion well with white lines added to mark the bounds of the invasion chamber.

PTPRZ1 = experiment: Validation of knockdown (immunofluorescence, Western blot, qPCR); assay type: cell-based, human; conditions: vs scrambled control hairpin
Experimental: FIG. 12B. Transplants of primary glioblastoma tumors into cortical organoids. […] Western blot and qPCR to validate knockdown (quantified across 3 replicates for qPCR) were also performed.

[3] = tested on: DBTRGFL patient derived xenograft line; experiment: Time-lapse imaging of MST after shRNA knockdown in PDX line; assay type: cell-based, human; conditions: 4 technical replicates
Experimental: FIG. 6A. PTPRZ1 Promotes MST driven invasiveness of glioblastoma.
Dissociated tumor cells were seeded onto matrigel coated glass bottom wells. 24 hours after plating cells were infected with a CMV-adeno-GFP virus (Vector Biolabs) to allow for visualization of cell morphology and behavior. Cell were cultured at 37° C., 5% CO2, and 8% O2, and monitored for GFP and expression (~ 24 to 48 h). Cultured cells were then transferred to an inverted Leica TCS SP5 with an on-stage incubator (while streaming 5% CO2, 5% O2, balance N2 into the chamber), and imaged in both the GFP and transmitted light channels using a × 10 objective at 15-20 min intervals for up to 4. Movies were analyzed with Imaris.

[4] = tested on: primary developing human cortex cells and primary glioblastoma cells; experiment: Single-cell RNA sequencing after PTPRZ1 knockdown; assay type: cell-based; conditions: primary and glioblastoma samples
From the text: FIG. 5F. Sorting for PTPRZ1 positive cells enriches for oRG-like cells. Workflow of single-cell sequencing is shown. PTPRZ1 KD and a scrambled control were used to knockdown PTPRZ1 in both primary developing human cortex cells and primary glioblastoma cells. […] (* = p-value < 0.05). […] These changes were accompanied by a significant downregulation of several outer radial glia marker genes.
Primary cells (GW 17, n = 2) and primary tumor samples (n = 2) were dissociated and infected with lentivirus either with a hairpin against PTPRZ1 mRNA or a control hairpin during plating. Cells were maintained in their normal media conditions for 1 week, after which cells were removed from the plate with trypsinization, dissociated into a single-cell suspension, and captured with 10X v2 single-cell as previously described.
To better understand the molecular mechanism of PTPRZ1 signaling in glioblastoma tumor propagation, and to characterize how these cells differ from normal radial glia, in vitro KD was performed of PTRPZ1 in dissociated cell culture of primary developing cortex, primary tumor dissociated cell culture, and PDX dissociated cell culture. […] Each control/treatment pair was analyzed individually and the radial glia populations were isolated for further examination (FIG. 5F). […]

Row | Substance | length of MST (somal translocation length) (oRG cells) | invasive behavior of the PDX tumors [1] | somal translocation length (oRG cells; primary samples, 3 biological replicates and 4 technical replicates each (FIG. 6A)) | Proliferation, difference shScr (Ctrl) vs shPTPRZ1 (KD) [2] | PTPRZ1 protein knockdown (PTPRZ1) | length of MST (somal translocation length) [3] | proportion of radial glia and other progenitor populations ([4]; 1 week after lentiviral infection, vs scrambled hairpin) | expression of other key markers of radial glia identity ([4]; radial glia populations)
1 | PTN shRNA: short hairpin RNA knocking down PTN, the ligand of PTPRZ1; exemplary sequence SEQ ID NO: 6 (CCGGAGGCAAGAAACAGGAGAAGATCTCGAGATCTTCTCCTGTTTCTTGCCTTTTTT) | significantly reduced the length of MST; also recorded: decrease the length of somal translocation length |  |  |  |  |  |  | 
2 | PTPRZ1 shRNA: short hairpin RNA against PTPRZ1 mRNA, lentivirus-delivered; exemplary sequence SEQ ID NO: 5 (CCGGCCAGACAACAAGCACAAGAATCTCGAGATTCTTGTGCTTGTTGTCTGGTTTTT) | significantly reduced the length of MST; also recorded: decrease the length of somal translocation length | significantly decreased the invasive behavior | decrease the length of somal translocation length | not significant | validates protein knockdown | similarly impacted the length of MST; also recorded: decrease the length of somal translocation length | decrease in the proportion of both radial glia and other progenitor populations | down-regulated
